For `O=C(O)CCCCc1ccc(F)cc1`, which melting point is on record?
Its melting point is 74 °C.

Which melting point does the source give for `O=Cc1ccc2ccc3cccc4ccc1c2c34` here?
Its melting point is 127 °C.

Which melting point does the source give for `N[C@@H](CCCCNC(=O)OCc1ccccc1)C(=O)O` here?
Its melting point is 259 °C.

With `OCc1ccc(-n2cccn2)cc1` as the compound, how does the melting point read?
Its melting point is 76 to 80 °C.

With `COC(=O)NCCc1ccccc1NC(C)=O` as the compound, how does the melting point read?
The melting point was 107 °C.

For `CC(C)C(C(=O)O)c1ccccc1` (stereo not drawn), which melting point is on record?
Its melting point is 60 °C.

With `CC(=O)c1ccc(N=C=O)cc1` as the compound, how does the melting point read?
The melting point was 34 °C.

Which melting point does the source give for `Cc1cc([N+](=O)[O-])c(N)c([N+](=O)[O-])c1` here?
Its melting point is 172 °C.

Which melting point does the source give for `O=[N+]([O-])c1ccccc1N1CSc2nnc(-c3ccccc3)n2C1` here?
Its melting point is greater than 300 °C.

With `O=C(N=Nc1ccccc1)NNc1ccccc1` as the compound, how does the melting point read?
Its melting point is 153 to 157 °C.

Which melting point does the source give for `O=C(c1ccc(-c2ccccc2)cc1)c1ccc(-c2ccccc2)cc1` here?
Its melting point is 238 °C.

For `CCOC(=O)c1c(Cl)cc(C)cc1N1CCCC1`, which melting point is on record?
The melting point was 78 to 79 °C.

Which melting point does the source give for `O=C(O)Cc1cccc(I)c1` here?
Its melting point is 130 °C.

For `C=CC(C)(O)CCC=C(C)CCC=C(C)C` (stereo not drawn), which melting point is on record?
The melting point was 25 °C.

Which melting point does the source give for `CC(C)(C)c1cc(C(=O)NN)[nH]n1` here?
Its melting point is 177 to 181 °C.

For `CC(CO)C1CCC2C3CCC4=CC(=O)C=CC4(C)C3CCC12C` (stereo not drawn), which melting point is on record?
The melting point was 178 to 184 °C.

For `c1ccc2c(c1)ccc1c2ccc2c3ccccc3ccc21`, which melting point is on record?
The melting point was 368 °C.

For `Cn1ccc(-c2cccc(C(=O)Oc3c(F)c(F)c(F)c(F)c3F)c2)n1`, which melting point is on record?
The melting point was 126 to 127 °C.

For `Cn1nc(-c2cccs2)cc1CO`, which melting point is on record?
Its melting point is 95 to 96 °C.

With `S=C(n1ccnc1)n1ccnc1` as the compound, how does the melting point read?
The melting point was 96 to 103 °C.

For `CC(=O)CCc1oc2c(Br)cc(Br)cc2c1-c1ccc(C)o1`, which melting point is on record?
Its melting point is 107 to 108 °C.

With `CC1(C)C(C=C(Cl)Cl)C1C(=O)OCc1cccc(Oc2ccccc2)c1` (stereo not drawn) as the compound, how does the melting point read?
The melting point was 34.5 °C.

With `O=C(Cl)C1COc2ccccc2O1` (stereo not drawn) as the compound, how does the melting point read?
Its melting point is 56 to 57 °C.

Which melting point does the source give for `CC12CCC(=O)C=C1CCC1C2C(O)CC2(C)C(C(=O)CO)CCC12` (stereo not drawn) here?
The melting point was 181 °C.

Which melting point does the source give for `CCOC(=O)c1cc2c(s1)Sc1[nH]c(C(=O)OCC)c(N)c1C2c1ccccc1` (stereo not drawn) here?
The melting point was 133 °C.

Which melting point does the source give for `N#Cc1ccc(Br)cc1Cl` here?
The melting point was 70 °C.

Which melting point does the source give for `Cc1ccc(C(C=O)C=O)cc1` here?
Its melting point is 128 to 134 °C.

Which melting point does the source give for `Fc1cc(Br)cc(Br)c1Br` here?
The melting point was 30 to 34 °C.

With `O=C(O)c1ccc(-c2ccccn2)s1` as the compound, how does the melting point read?
The melting point was 231 to 233 °C.

Which melting point does the source give for `CN(C)CCO` here?
Its melting point is -59 °C.

Which melting point does the source give for `c1ccc(-c2cn3c(n2)SCC3)cc1` here?
Its melting point is 147 to 148 °C.

For `O=C(CCl)NCc1ccc2c(c1)OCO2`, which melting point is on record?
The melting point was 91.4 to 93.8 °C.

Which melting point does the source give for `CC(=O)NC(CC(=O)O)C(=O)O` (stereo not drawn) here?
Its melting point is 138 °C.

For `O=C(O)C(C(=O)O)c1ccccc1`, which melting point is on record?
Its melting point is 153 to 155 °C.

Which melting point does the source give for `Cn1cccc1C(=O)O` here?
Its melting point is 137 °C.

For `BrC1(c2ccccc2)c2ccccc2-c2ccccc21`, which melting point is on record?
Its melting point is 97 °C.

For `O=c1cc(C(F)(F)F)n2nc(-c3ccc(Cl)cc3)cc2[nH]1`, which melting point is on record?
Its melting point is 155 °C.

With `O=C(O)c1cccc2c1OCCO2` as the compound, how does the melting point read?
Its melting point is 189 to 191 °C.

For `COc1ccc2c(c1O)-c1cccc3c1C(C2)N(C)CC3` (stereo not drawn), which melting point is on record?
The melting point was 124 °C.

Which melting point does the source give for `Nc1c(Cl)cccc1C(=O)O` here?
The melting point was 190 °C.

For `FC(F)=C(Cl)C(F)(F)F`, which melting point is on record?
Its melting point is -130 °C.

With `O=C(O)c1cc(O)c(Br)c(O)c1` as the compound, how does the melting point read?
The melting point was 270 °C.

Which melting point does the source give for `CC(C)=NNC(=O)c1cc(C)on1` here?
The melting point was 244 to 246 °C.

For `CC1(c2ccccc2)CC(C(=NO)c2cc3ccccc3o2)C1` (stereo not drawn), which melting point is on record?
Its melting point is 200 to 201 °C.

For `C[C@H](N)C(=O)O`, which melting point is on record?
Its melting point is 314 to 316 °C.

For `C#CC1(O)CCC2C3CCC4CC5(CCC4(C)C3CCC21C)OCCO5` (stereo not drawn), which melting point is on record?
Its melting point is 197 to 199 °C.

With `NCc1ccccc1` as the compound, how does the melting point read?
Its melting point is 10 °C.

For `N#CN=C(Oc1ccccc1)Oc1ccccc1`, which melting point is on record?
Its melting point is 157 °C.

With `Cc1cccc(/N=N/c2c(N)nn3c(C(F)(F)F)cc(=O)[nH]c23)c1` as the compound, how does the melting point read?
The melting point was 280 °C.

For `O=C(Cl)c1ccsc1`, which melting point is on record?
The melting point was 50 to 54 °C.

For `CCCOC(=O)c1ccccc1O`, which melting point is on record?
Its melting point is 97 °C.

For `Cn1ccc(C(=O)O)n1`, which melting point is on record?
Its melting point is 154 °C.

For `CCOC(=O)c1cc2c(=O)oc3ccccc3c2nc1N`, which melting point is on record?
The melting point was 192 °C.

For `c1cc(-c2cnc3ccccc3n2)cc(-c2cnc3ccccc3n2)c1`, which melting point is on record?
Its melting point is 202 to 203 °C.

With `FC(F)(F)c1cc(C=Cc2noc(CCl)n2)cc(C(F)(F)F)c1` as the compound, how does the melting point read?
The melting point was 106 to 108 °C.

For `Cc1nc2ccccc2[nH]c1=O`, which melting point is on record?
Its melting point is 270 °C.

Which melting point does the source give for `O=C1C(=C2c3ccccc3C(=O)C2c2cc(Cl)c([N+](=O)[O-])cc2[N+](=O)[O-])C(=O)c2ccccc21` (stereo not drawn) here?
The melting point was 218 °C.

For `O=[N+]([O-])c1c(Cl)cccc1-c1c[nH]cc1Cl`, which melting point is on record?
The melting point was 124 °C.

With `C#CC1(O)CCC2C3CCC4=Cc5oncc5CC4(C)C3CCC21C` (stereo not drawn) as the compound, how does the melting point read?
Its melting point is 235 °C.

With `Cc1cc([N+]([O-])=Nc2ccc(N=Nc3ccccc3)cc2)ccc1N=Nc1ccc(N=Nc2ccccc2)cc1` as the compound, how does the melting point read?
Its melting point is 193 °C.

With `CCCCCc1ccc(NC(=O)c2ccc(C)cc2)cc1` as the compound, how does the melting point read?
The melting point was 129 °C.

Which melting point does the source give for `COc1ccccc1-c1nnc2n1NC(c1ccccc1OC)S2` (stereo not drawn) here?
The melting point was 173 °C.

Which melting point does the source give for `Cc1ccc(NN=C2C(=O)NN(c3ccccc3)C2=O)cc1` here?
Its melting point is 277 °C.
